These results are taken from article PMC4503980 (Scientific Reports, 2015).

Holding throughout (assay type): binding
Assay [1] addresses T1, TAMRA-nNOS/PSD-95-PDZ1 interaction (Homo sapiens, UniProt P29475+P78352, V36C).
T1 construct: nNOS-PDZ (12–130, human); PDZ1 (61-151); made in house; host or cells: E. coli
Briefly: 'direct' FP assay, TAMRA-nNOS / PDZ1 (saturation and inhibition). Here is the method:
(§1) The assay was established by creating a fluorescent version of nNOS-PDZ by TAMRA-labelling nNOS-PDZ via an introduced cysteine residue (V36C). […] However, up to 7.3 μM no inhibition of TAMRA-nNOS/PSD-95-PDZ interactions could be measured (data not shown).
(§2) (a) Saturation curves between TAMRA-nNOS (5 nM) and PDZ1, PDZ2, and PDZ1-2 of PSD-95. […] Error bars indicate SEM based on three individual measurements.
(§3) nNOS-PDZ (12–130, human) and α-Syntrophin-PDZ (82–200, human), both comprising an N-terminal His-tag/FXa-site sequence ([…]), were likewise expressed in E. coli and purified by HisTrap chromatography followed by gel-filtration as described in details previously. To make the TAMRA-labelled nNOS-PDZ, mutant nNOS-PDZ (V36C) protein was generated by standard site-directed mutagenesis and characterized as described previously. […]
(§4) Incubation time was 10–15 minutes (room temperature), and the assay was performed in a 1 × TBS buffer (150 mM NaCl, 10 mM Tris, pH 7.4) using black flat-bottom 384-well plates (Corning Life Sciences, NY) and a Safire2 plate-reader (Tecan, Männedorf, Switzerland). […] TAMRA- and Cy5-probes were measured at excitation/emission values of 530/585 nm (bandwidth = 20 nm) and 635/670 nm (bandwidth = 15 nm), respectively. […]

In assay [2] the target is T2, TAMRA-nNOS/PSD-95-PDZ2 interaction (Homo sapiens, UniProt P29475+P78352, V36C).
T2 construct: nNOS-PDZ (12–130, human); PDZ2 (155-249); made in house; host or cells: E. coli
The assay is described as follows: 'direct' FP assay, TAMRA-nNOS / PDZ2 (saturation and inhibition). Here is the method: as §1, §2, §3, §4

The target of assay [3] is T3, extended nNOS-PDZ (Mus musculus, UniProt Q9Z0J4).
T3 construct: nNOS-PDZ (residues 12–134, Uniprot Q9JJ30); made in house
The assay is described as follows: ITC titration into extended nNOS-PDZ. As to conditions: 100 μM protein in cell, 750 μM compound in syringe, 1% DMSO, pH 6.3, 25 °C. The source says:
Unlike the FP experiments above, which rely on inhibition of interaction partners, the ITC method is a direct measure of binding, regardless of where it takes place on the protein.
Figure 5 ITC curves. Plots showing titrations into PDZ domains fitted to a one-site model.
For isothermal titration calorimetry (ITC) and NMR, PSD-95-PDZ2 (157–249, human) was expressed and purified as described previously. The sequence for the extended Mus musculus nNOS-PDZ (residues 12–134, Uniprot Q9JJ30) was sub-cloned into a pETM11 vector using cloning sites Nco1 and Kpn1, and the protein was expressed and purified following a similar protocol to that used for the production of PSD-95-PDZ2.
All ITC experiments were carried out at 25 °C on an iTC200 Microcalorimeter (GE Healthcare) with a 200 μL cell capacity and 40 μL syringe volume. The buffer used for all solutions was 20 mM phosphate buffer at pH 6.3; each experiment consisted of an initial injection of 0.5 μL, followed by fifteen 2.39 μL injections before a final injection of 1.89 μL. […] In both cases no heat exchange was detected, confirming that there was appropriate match of buffer conditions with no indication of dilution effects. […] For the nNOS-PDZ/PSD-95-PDZ2 interaction, 100 μM PDZ2 in the cell was titrated with 750 μM nNOS-PDZ. […] All data was analysed using the Origin®7 software programme.
A general note: Isothermal titration calorimetry measures the heat released or taken up as one component is titrated into another.

The mark [4] stands for this setting: up to 7.3 μM (fluorescence artefacts above), data not shown.

T3 sequence (Q9Z0J4 12-134): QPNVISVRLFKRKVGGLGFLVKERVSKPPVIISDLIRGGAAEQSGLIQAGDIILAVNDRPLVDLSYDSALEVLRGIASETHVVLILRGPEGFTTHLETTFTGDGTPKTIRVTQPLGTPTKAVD

With `O=C(O)c1ccc(NCc2cc(Cl)cc(Cl)c2O)cc1O` [ZL006, 4-((3,5-Dichloro-2-hydroxybenzyl)amino)-2-hydroxybenzoic acid], the “inhibition of TAMRA-nNOS/PDZ1 interaction” value in assay [1] (tested at up to 1200 μM, TAMRA-nNOS 5 nM, PDZ1 7.5 μM) is “no activity”. Further, the “inhibition of TAMRA-nNOS/PDZ2 interaction” value in assay [2] (tested at up to 1200 μM, TAMRA-nNOS 5 nM, PDZ2 2.5 μM) is “no activity”. Besides, the “binding to extended nNOS-PDZ by ITC” value in assay [3] is recorded as “binding was too weak to produce a binding isotherm”.

`Oc1c(Cl)cc(Cl)cc1CNc1ccc2[nH]nnc2c1` [IC87201, 2-((1H-Benzo[d][1–3]triazol-5-ylamino)methyl)-4-6-dichlorophenol]: in assay [1] (setting [4]), the “inhibition of TAMRA-nNOS/PDZ1 interaction” value is on record as “no inhibition”. In addition, the “inhibition of TAMRA-nNOS/PDZ2 interaction” value in assay [2] (setting [4]) is on record as “no inhibition”. The “binding to extended nNOS-PDZ by ITC” value in assay [3] is listed as “does not bind”.
